Columns and labels:
NGAL = molecular target: T1, NGAL (Homo sapiens, UniProt P80188); assay: NGAL-induced IL6 secretion in human cardiac fibroblasts (ELISA); format: cell-based; conditions: NGAL 10 ng/ml, FIGS. 1 and 2 panel A
T1 construct: purchased R&D Systems
Procedure: Cell Culture Human cardiac fibroblasts (primary culture) were obtained from Promocell and maintained in medium (Fibroblast Media 3). Cells were cultured according to the manufacturer's instructions and used between passages 5 and 7. Cells were stimulated with aldosterone (10^-8 M, Sigma) or recombinant hNGAL (500 ng/mL, R&D Systems) for 24 h for protein analysis. Mouse kidney fibroblasts (MKF), were isolated from Wild Type (WT) mice. Briefly, mice 7 to 8 weeks were sacrificed by cervical dislocation and kidneys were cleaned and rinsed in cold DPBS (Dulbecco's Phosphate-Buffered Saline). The renal cortex was minced and incubated in Dulbecco's modified eagle medium/Nutrient mixture F-12 (DMEM/F12, Sigma) containing 1 mg/mL collagenase A (Roche) during 25 minutes at 37° C. The digestion was inactivated by adding culture medium (DMEM/F12+10% FBS) then the cell suspension was passed through a 100-μm cell strainer. After centrifugation, the pellet (containing MKF) was diluted with culture medium then plated in 75 cm^2 culture flask. After 24 hours MKF were washed with DPBS before replacement of fresh culture medium. Thereafter, culture medium was changed every 48 hours. Once 70-80% confluent, MKF were trypsinized and plated in 12 or 6-well plates. For experimental use, MKF were starved with culture medium containing only 3% FBS. MKF were treated with mNGAL (500 ng/mL, R&D Systems) for 24 h for gene expression analysis.
(§1) NGAL, IL6 and collagen type I concentrations were measured in cardiac tissue and cell supernatants, respectively, by ELISA according to the manufacturer's instructions (R&D Systems).
The inhibitory activity of the compounds was evaluated on the NGAL-induced IL6 secretion (NGAL 10 ng/ml) in human cardiac fibroblasts.
Inhibitory activities of 23 second generation compounds derived from GPZ614741 and GPZ058225 were evaluated on the NGAL-induced IL6 secretion (NGAL 10 ng/ml) in human cardiac fibroblasts.

[1] = test system: aldosterone-induced profibrotic marker synthesis; assay: Aldosterone-induced profibrotic marker synthesis in human cardiac fibroblasts; format: cell-based; conditions: FIGS. 1 and 2 panel D
Procedure: Cell Culture Human cardiac fibroblasts (primary culture) were obtained from Promocell and maintained in medium (Fibroblast Media 3). Cells were cultured according to the manufacturer's instructions and used between passages 5 and 7. Cells were stimulated with aldosterone (10^-8 M, Sigma) or recombinant hNGAL (500 ng/mL, R&D Systems) for 24 h for protein analysis. Mouse kidney fibroblasts (MKF), were isolated from Wild Type (WT) mice. Briefly, mice 7 to 8 weeks were sacrificed by cervical dislocation and kidneys were cleaned and rinsed in cold DPBS (Dulbecco's Phosphate-Buffered Saline). […]
Total protein aliquots of 20 μg were prepared from cardiac homogenates and electrophoresed on SDS polyacrylamide gels and transferred to Hybond-c Extra nitrocellulose membranes (Amersham Biosciences). […] After densitometric analyses, optical density values were expressed as arbitrary units. Results are expressed as an n-fold increase over the values of the control group in densitometric arbitrary units.
as §1
The inhibitory activity of the compounds was evaluated on the NGAL-induced IL6 secretion (NGAL 10 ng/ml) in human cardiac fibroblasts. […]

[2] = test system: Myocardial Infarction Model; assay: Cardiac fibrosis and collagen immunostaining in the myocardial infarction model; format: in vivo, mice; conditions: MI model, 100 mg/kg/day in food admix, three months
From the text: After assessment of cardiac hemodynamics, the heart was removed, and the atria and the ventricles were separated and weighed individually. A section of the left ventricle was immersed in Bouin fixative solution. After fixation, the sections were dehydrated and embedded in paraffin. From these sections, […] histologic slices were obtained and were stained with Sirius Red. For the measurement of cardiac collagen density, slides were examined and photographed under a light microscope (Zeiss) at 40× magnification. Collagen content was calculated as percentage of collagen area to total area of the image. Perivascular collagen was excluded from the analysis.
Frozen mid-LV sections are thawed at room temperature (30 min), immersed in acetone, rinsed in PBS (1×) and immersed in BSA (10 min each). Slides are then incubated with primary rabbit anti-human collagen-I Ab (Abcam ab 34710) (dilution 1/1000) and primary goat anti-human collagen-III Ab (Rnd NBP1 26547) (dilution 1/500) for 1 hour. Thereafter, slides are rinsed three times in PBS (1×) before being incubated with secondary antibodies donkey […] coupled with FITC (Jackson immunosearch 715-095-151) and donkey anti-goat coupled with Cy3 (Interchim A50-201D3) (dilution 1/400). After three rinses in PBS (1×), slides are mounted with a cover slip on a vecatshield+DAPI medium (Vector Laboratories). A minimum of 8/slide microscopic photographs (×20) were taken from Axiocam-Z1 (Zeiss) fluorescence microscope and analyzed with Image Pro-plus Software. Results are shown as mean±esm.

[3] = test system: isolated hepatocytes from swiss mice; assay: Hepatotoxicity, MTT colorimetric assay; format: cell-based
Procedure: (§2) Two specific toxicity assays have been performed to assess hepatoxicity and cardiotoxicity. Hepatotoxicity was evaluated in isolated hepatocytes from swiss mice and determined by the MTT colorimetric assay. Cardiotoxicity was evaluated using the commercially available Predictor hERG fluorescence polarization kit (Thermo Fisher Scientific). Several ADME assays have been carried out on the compounds generated throughout the project. The following experiments were undertaken: Stability in human microsomes, binding to human plasma protein, and CYP3A4 inhibition assay (Vivid CYP3A4 assay, Thermo Fisher Scientific). Physico-chemical properties were also assessed such as aqueous solubility and chemical stability.

human microsomes = assay: Stability in human microsomes; format: in vitro ADME
Procedure: as §2

[4] = Binding to human plasma protein; format: in vitro ADME; conditions: human, human plasma protein; read-out: hPPB (converted)
Procedure: as §2

human plasma protein = assay: Binding to human plasma protein; format: in vitro ADME
Procedure: as §2

Aqueous solubility = format: physicochemical
Procedure: as §2

Chemical stability = format: physicochemical
Procedure: as §2

T1 sequence (P80188 21-198): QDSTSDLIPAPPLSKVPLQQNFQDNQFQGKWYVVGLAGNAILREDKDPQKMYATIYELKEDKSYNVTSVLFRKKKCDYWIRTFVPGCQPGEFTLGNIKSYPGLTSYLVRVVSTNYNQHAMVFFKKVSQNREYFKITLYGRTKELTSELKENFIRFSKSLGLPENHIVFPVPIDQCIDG

NGAL-induced IL6 secretion (NGAL): inhibited | microsomes degradation, left after 2 h (human microsomes; after 2 h): 2.2% | Micro Stability (human microsomes; human microsomes): 2.19% | fraction unbound [4]: 0.288 | PPB (binding to plasma proteins) (human plasma protein): low | Aquous solubility (Aqueous solubility): 100% | solubility in aqueous buffers (solubility test) (Aqueous solubility): perfectly soluble | Chemical Stability (Chemical stability): 103% | stability to acidic pH / digestive content (Chemical stability): fully stable
SMILES: CC(=O)c1cccc(S(=O)(=O)NCc2ccccc2-n2cccn2)c1 [GPZ614741]
aldosterone-induced profibrotic marker (Col1, CT-1, or IL6) synthesis [1]: inhibited | LV interstitial collagen density ([2]; FIG. 9 panel A): significant decrease | Col I immunostaining ([2]; FIG. 9 panel B): decrease | Col III immunostaining ([2]; FIG. 9 panel C): decrease | hepatotoxicity (toxicity for hepatocytes) ([3]; MTT up to 0.1 mM): no toxicity | Hepatotoxicity ([3]; cell wrapped over two lines: No tox up / 100 uM): No tox up
